From PubChem BioAssay (NCI)
Values joined by “and” are separate entries in the source; they are usually repeats but may differ in a detail not shown here. Identical values can stand only once.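 Protocol summary: plate cells (96-well), add compound at 5 concentrations, incubate 48 h, interpolate endpoints linearly. GI50: concentration for 50% inhibition of growth. TGI denotes the concentration required for complete inhibition of growth.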 Where a SMILES comes first, the peptide text is derived from it.

Experiments:
Test in all cases: NCI anticancer screen, dose series, 48 h
ACHN renal = system: ACHN renal
EKVX NSCLC = system: EKVX NSCLC
MALME-3M melanoma = system: MALME-3M melanoma
NCI-H226 lung = system: NCI-H226 lung
NCI-H522 lung = system: NCI-H522 lung
RXF 393 renal = system: RXF 393 renal
SNB-19 CNS = system: SNB-19 CNS
U251 CNS = system: U251 CNS
UACC-62 melanoma = system: UACC-62 melanoma
UO-31 renal = system: UO-31 renal

Row | Compound | TGI (ACHN renal) [µM] | GI50 (EKVX NSCLC) [µM] | TGI (EKVX NSCLC) | GI50 (MALME-3M melanoma) [µM] | TGI (MALME-3M melanoma) | GI50 (NCI-H226 lung) | TGI (NCI-H226 lung) | GI50 (NCI-H522 lung) [µM] | TGI (NCI-H522 lung) | GI50 (RXF 393 renal) [µM] | TGI (RXF 393 renal) | GI50 (SNB-19 CNS) | TGI (SNB-19 CNS) | GI50 (U251 CNS) [µM] | TGI (U251 CNS) | GI50 (UACC-62 melanoma) [µM] | TGI (UACC-62 melanoma) | GI50 (UO-31 renal) [µM] | TGI (UO-31 renal) | GI50 (ACHN renal) [µM]
1 | CC(=O)O[C@H]1C(=O)O[C@@H]2C[C@H]3C(C)=CC(=O)[C@@H](O)[C@]3(C)[C@H]3[C@@]4(O)OC[C@]32[C@@H]1[C@@H](C)[C@H]4O | 0.394 | 0.159 | 1.12 µM and 0.219 µM | < 0.01 | 0.062 µM and 0.0429 µM | < 0.0205 µM and 0.0366 µM | 0.0775 µM and 0.166 µM | < 0.0116 | 0.226 µM and 0.0582 µM | 0.0481 | 0.503 µM and 0.108 µM | 0.0138 µM and 0.0382 µM | 0.0995 µM and 0.135 µM | < 0.01 | 0.049 µM and 0.0797 µM | 0.0271 | 0.531 µM and 0.2 µM | 0.0958 | 1.21 µM and 4.45 µM | 
2 | C=C1C(=O)O[C@H]2[C@H]1CC/C(COC(=O)CCCCCCCCC(=O)OC/C1=C/CC[C@@]3(C)O[C@H]3[C@H]3OC(=O)C(=C)[C@@H]3CC1)=C\CC[C@@]1(C)O[C@@H]21 | 3.55 | 1.95 | 4.29 µM | 1.84 | 3.97 µM | 2.75 µM | 7.24 µM | 2.12 | 4.04 µM | 1.86 | 3.42 µM | 2.45 µM | 6.51 µM | 1.96 | 3.82 µM | 1.99 | 4.25 µM | 1.47 | 2.95 µM | 1.8
3 | N/C(=N\N=C\c1cccs1)NO | > 100 |  | > 100 µM |  | > 100 µM |  | > 100 µM |  | > 100 µM |  | > 100 µM |  | > 100 µM |  | > 100 µM |  | 51 µM |  | > 100 µM | 
4 | NC(CNO)C(=O)O (stereo not given) | > 100 |  | > 100 µM |  | > 100 µM |  | > 100 µM |  | > 100 µM |  | > 100 µM |  | > 100 µM |  | > 100 µM |  | > 100 µM |  | > 100 µM | 
5 | CN(C)C(=O)/N=c1\ss/c(=N\C(=S)N(C)C)n1-c1ccccc1 | > 100 |  | > 100 µM |  | > 100 µM |  | > 100 µM |  | 8.12 µM |  | > 79.9 µM |  | > 100 µM |  | > 100 µM | 1.92 | > 100 µM |  | > 100 µM | 
6 | c1cc(OCCN2CCCCCC2)ccc1CNc1ccc2nc(CCC3CCCCC3)[nH]c2c1 | 7.97 | 2.49 | 9.58 µM | 1.64 | 3.1 µM | 1.88 µM | 5.19 µM | 1.97 | 4.34 µM | 1.53 | 4.4 µM | 3.05 µM | 11.4 µM | 1.6 | 3.17 µM | 1.84 | 3.35 µM | 1.37 | 2.72 µM | 2.68
7 | CC1(C)OC(C(N)=O)=C(C(N)=O)O1 | > 100 |  | > 100 µM |  | > 100 µM |  | > 100 µM |  | > 100 µM |  | > 100 µM |  | > 100 µM |  | > 100 µM |  | > 100 µM |  | > 100 µM | 
8 | Cn1ncc2c(/N=C/c3cccs3)[nH]c(=S)nc21 | > 80 | 41.1 | 99.8 µM | 34 | > 80.7 µM | 10.5 µM | 40.9 µM | > 68.2 | > 100 µM | 26.2 | > 73.3 µM | 49.9 µM | > 100 µM | 43.1 | > 100 µM | 19.6 | 52.4 µM | 58.6 | > 100 µM | 37.6
9 | Cn1cccc1-c1cc(-c2cccs2)[nH]c(=O)c1C#N | > 100 | 52.3 | > 100 µM | > 100 | > 100 µM | > 100 µM | > 100 µM | 25.9 | > 100 µM | > 100 | > 100 µM | > 100 µM | > 100 µM | > 100 | > 100 µM | 73.1 | > 100 µM | 13.8 | 27.5 µM | > 100
10 | CN[C@]12CC3(C=CC(=O)C=C3)O[C@@]1(Cc1ccc(OC)cc1)N(C)C(=O)N2 | 4 | 4.23 | 19.1 µM | 2.69 | 7.85 µM | 3.46 µM | 15.9 µM | 0.371 | 2.14 µM | 1.82 | 3.6 µM | 3.63 µM | 14.5 µM | 1.85 | 3.99 µM | 1.46 | 3.34 µM | 1.47 | 2.89 µM | 1.67
11 | COc1cc(-c2cc(=O)c3ccccc3o2)ccc1N | > 100 |  | > 100 µM |  | > 100 µM |  | 96.6 µM |  | > 100 µM |  | > 100 µM |  | > 100 µM |  | > 100 µM |  | > 100 µM |  | > 100 µM | 
12 | CCC(C)OC(=O)C1C2CCC(O2)C1C(=O)O (stereo not given) | > 100 |  | > 100 µM |  | > 100 µM |  | > 100 µM |  | > 100 µM |  | > 56.2 µM |  | > 100 µM |  | > 67.3 µM |  | > 100 µM |  | > 100 µM | 
13 | CCN(CC)CCOc1ccc(/C(=C(\C)Cc2ccc(OC)cc2)c2ccc(OC(=O)NCc3ccccc3)cc2)cc1 | 3.58 | 2.63 | 11.5 µM | 1.72 | 3.3 µM | 4.71 µM | 18.7 µM | 1.93 | 4.24 µM | 1.65 | 3.08 µM | 3.5 µM | 11.6 µM | 1.83 | 3.43 µM | 1.92 | 3.55 µM | 1.52 | 3.02 µM | 1.85
14 | COC(=O)C(C(=O)C(=O)NC1=C(Cl)C(=O)c2ccccc2C1=O)c1csc(-n2nc(-c3ccccc3)cc2-c2ccccc2)n1 (stereo not given) | > 100 |  | > 100 µM |  | > 100 µM |  | > 100 µM |  | > 100 µM |  | > 100 µM |  | > 100 µM |  | > 100 µM |  | > 100 µM |  | > 100 µM | 
15 | CC(C)CC(NC(=O)C(CC(C)C)NC(=O)C(Cc1cnc[nH]1)NC(=O)C(C)NC(=O)C(NC(=O)C(C)NC(=O)C(Cc1c[nH]c2ccccc12)NC(=O)C(CCC(=O)O)NC(=O)C(N)Cc1ccccc1)C(C)C)C(N)=O (stereo not given) (H-FEWAVAHLL-NH2; configuration not given here) | > 100 | > 100 | > 100 µM |  | > 12.5 µM |  | > 12.5 µM |  | > 12.5 µM | > 100 | > 100 µM |  | > 100 µM | > 100 | > 100 µM | > 100 | > 100 µM | 70.9 | > 100 µM | 
